According to patent publication US10450337B2, “Pharmaceutical compounds” (Rafael Pharmaceuticals, Inc., priority 2014, dated 2019):

Key:
Assay type in all cases: cell-based
[1] = test system: BXPC3 human pancreatic cancer cells; test: Cell kill screening, CellTiter Glo viability assay, BXPC3; conditions: 24 hours treatment, 0.5% serum and 0.05% DMSO, relative to untreated control; for viability at 50 µM: BXPC-3, 50 μM, read-out: % avg live cells @ 50 μM (% Viable Cells Remaining); for viability at 100 µM: BXPC-3, 100 μM, read-out: % avg live cells @ 100 μM (% Viable Cells Remaining)
Source text: (§1) The objective of this investigation was to assess the in vitro cell killing activities of analogs of lipoic acid in BXPC3 human pancreatic, 11460 non small lung carcinoma, and SF539 human gliosarcoma cancer cells.
(§2) Three human tumor cell types, BXPC3 human pancreatic cancer, H460 non small lung carcinoma, and SF539 human gliosarcoma, were used in this investigation. The BXPC3 and H460 cells were originally obtained from American Type Cell Culture (ATCC). The SF539 cells were originally obtained from the NCI AIDS and Cancer Specimen Bank (ACSB). All tumor cells were maintained at 37° C. in a humidified 5% CO2 atmosphere in T75 tissue culture flasks containing 20 mL of Roswell Park Memorial Institute (RPMI) 1640 containing 2 mM L-glutamine, 10% FBS and 1% penicillin and streptomycin (100 IU/mL penicillin and 100 μg/mL streptomycin). The tumor cells were split at a ratio of 1:5 every 4-5 days by trypsinization and resuspended in fresh medium in a new flask. Cells were harvested for experiments at 70-90% confluency.
(§3) Stock solutions of each analog were prepared at a concentration of 200 and 100 mM in DMSO. Five μL of this solution was diluted in 10.0 mL of 0.5% serum containing RPMI media to give the desired 100 μM and 50 μM solutions in 0.05% DMSO.
(§4) The cancer cells were seeded at 4000 cells/well for H460 cells and 6000 cells/well for BXPC3 and SF 539 cells and incubated 24 hours. The killing activity of analogs was assayed at 50 μM and 100 μM concentrations. The tumor cells were treated for 24 hours with the test article, and after 24 hours of treatment the number of viable tumor cells was determined using the CTG assay.
(§5) The number of cells targeted for the study is 4×10^3 per well for H460 cells and 6×10^3 per well for BXPC3 and SF539 cells in 100 μL of medium. The actual number of cells were counted and seeded in the wells of a 96 well-plate. The cells were incubated for approximately 24 hours before addition of test article.
(§6) The media in the plate was removed by aspiration, and 100 μL of the test article at a final concentration of 50 μM or 100 μM was added to the cells. After exposure to the test articles for 24 hours, the number of viable cells in each well was determined and the percent of viable cells relative to control (in the absence of test article) were calculated. Additionally, a set of wells was treated with cell culture medium in the absence of cells to obtain a value for background luminescence. A separate set of cells was seeded at the same time in a clear 96-well plate and observed under the microscope at 24 hours, following addition of the test article to estimate the amount of cells present after treatment.
(§7) The number of viable cells was determined by using the CTG assay. Specifically, reagents were mixed and allowed to come to room temperature according to instructions from Promega, Inc. (Madison, Wis.). Cell plates were removed from the cell culture incubator and left on the bench for thirty minutes until they reached room temperature. 100 μL per well of CTG reagent was added with the 12-channel Eppendorf pipettor. The cells were lysed by shaking the plate for two minutes in a shaker. The cells were kept in room temperature for ten minutes to stabilize the luminescent signal. The luminescence was measured using the FLUOstar OPTIMA plate reader (BMG Labtech, Inc., Durham, N.C.).
(§8) Data from luminescence readings was copied onto EXCEL spreadsheets, and cell growth relative to untreated cells was calculated, using the following equation: […]

[2] = test system: H460 non small lung carcinoma cells; test: Cell kill screening, CellTiter Glo viability assay, H460; conditions: Homo sapiens, 24 hours treatment, 0.5% serum and 0.05% DMSO, relative to untreated control; for viability at 50 µM: NCI-H460, 50 μM, read-out: % avg live cells @ 50 μM (% Viable Cells Remaining); for viability at 100 µM: NCI-H460, 100 μM, read-out: % avg live cells @ 100 μM (% Viable Cells Remaining)
Source text: as §1, §2, §3, §4, §5, §6, §7, §8

[3] = test system: SF539 human gliosarcoma cells; test: Cell kill screening, CellTiter Glo viability assay, SF539; conditions: 24 hours treatment, 0.5% serum and 0.05% DMSO, relative to untreated control; for viability at 50 µM: SF-539, 50 μM, read-out: % avg live cells @ 50 μM (% Viable Cells Remaining); for viability at 100 µM: SF-539, 100 μM, read-out: % avg live cells @ 100 μM (% Viable Cells Remaining)
Source text: as §1, §2, §3, §4, §5, §6, §7, §8

SMILES | viability at 50 µM [1] | viability at 100 µM [1] | viability at 50 µM [2] | viability at 100 µM [2] | viability at 50 µM [3] | viability at 100 µM [3]
O=CCCCCC(CCSCc1ccccc1)SCc1ccccc1 (stereo not shown) [A] | 37.6% | 26.3% | 44.9% | 29.9% | 29.4% | 28.1%
O=C(O)CCCCCCC(CCSCc1ccccc1)SCc1ccccc1 (stereo not shown) [C] | 2% | 6% | 3% | 15% | 5% | 20%
O=C(O)/C=C/CCCCC(CCSCc1ccccc1)SCc1ccccc1 (stereo not shown) [D] | – | – | 15.4% | 0% | 9.9% | 0%
O=C(O)CCCCC(CCNC(=O)OCc1ccccc1)NC(=O)OCc1ccccc1 (stereo not shown) [G] | 82% | 72.6% | 89.1% | 87% | 97.3% | 79.6%
O=C(CCCCC(CCSCc1ccccc1)SCc1ccccc1)OCc1ccccc1 (stereo not shown) [H] | 92% | 84% | 110% | 101% | 97% | 95%
NC(=O)CCCCC(CCSCc1ccccc1)SCc1ccccc1 (stereo not shown) [I] | 1% | 0% | 1% | 0% | 1% | 1%
O=C(CCCCC(CCSCc1ccccc1)SCc1ccccc1)N1CCOCC1 (stereo not shown) [J] | 8.2% | 4.6% | 37.2% | 15.8% | 38.2% | 15.9%
O=C(CCCCC(CCSCc1ccccc1)SCc1ccccc1)NCCN1CCOCC1 (stereo not shown) [K] | 1% | 0% | 0% | 0% | 0% | 0%
CCN(CC)C(=O)CCCCC(CCSCc1ccccc1)SCc1ccccc1 (stereo not shown) [L] | 28% | 14% | 58% | 18% | 58% | 32%
CCN(CC)CCNC(=O)CCCCC(CCSCc1ccccc1)SCc1ccccc1 (stereo not shown) [M] | 10.8% | 1.4% | 20.5% | 8.5% | 3.1% | 1.9%
O=C(CCCCC(CCSCc1ccccc1)SCc1ccccc1)NCCS(=O)(=O)O (stereo not shown) [N] | 126% | 95% | 119% | 89% | 104% | 75%
